# In US8481551B2, “Gyrase and topoisomerase IV inhibitors” (Vertex Pharmaceuticals Incorporated, priority 2011, dated 2013):
# Structures can show the parent of a compound that is named as a salt.
# How the values were obtained:
# [1] = tested on: Neisseria meningitidis; test: Gyrase MIC, agar dilution method (Protocol 3); format: cell-based; settings: 12 isolates tested
# [2] = tested on: N. nova; test: MIC determination procedure for Mycobacterium species (Protocol 4); format: cell-based; settings: N. nova 10
# [3] = tested on: S. aureus (ATCC 29213); test: Neutropenic rat thigh infection model; format: in vivo, Sprague Dawley rats
# Excerpt: Animals: Specific-pathogen-free, male Sprague Dawley rats weighing between 76 to 100 grams were obtained from Charles River Laboratories, Inc. (Wilmington, Mass.) and utilized in this experiment. Animals were allowed to acclimate for a minimum of seven (7) days before study commencement. Bacteria: The methicillin-sensitive Staphylococcus aureus(MSSA) ATCC strain 29213 was utilized for in vivo experimentation. The test isolate was subcultured twice onto standard microbiological agar media (trypticase soy agar with 5% sheep blood). The second transfer was made less than 24 hours before use in the preparation of the thigh infection model inoculum. Neutropenic Rat Thigh Infection Model: To induce neutropenia, rats were treated with the immunosuppressant cyclophosphamide at 150 mg/kg, administered in 1 ml by intraperitoneal (IP) injection, three day prior to infection. Rats were infected by an intramuscular (IM) 0.2 ml injection into both rear thighs with a 10^7 cfu/ml methicillin-sensitive Staphylococcus aureus 29213 suspension in normal saline. After increasing amounts of time (2-26 hours) the two rear thighs of each animal were harvested, rinsed with sterile saline, weighed, then placed in 50 ml sterile normal saline and placed on wet ice until homogenization. Approximately one-half of the total homogenized sample volume was passed through a large pore filter (to remove cartilage and large clumped pieces of tissue), diluted in saline and cultured onto agar media plates (trypticase soy agar with 5% sheep blood). All culture plates were incubated at approximately 37° C. for 18-24 hours. Colony-forming units were enumerated (in cfu/ml of homogenate) and the median for each treatment and control group was calculated. […] The median cfu/ml per group was compared to the initial bacterial density at 2 hours (Early Control) or that of the time-matched vehicle control group (Late Control; LC) group harvested simultaneously. […] After 2 hours a single group of rats (Early Control (EC) was euthanized and the thighs harvested, homogenized and plated to quantitate S. aureus burdens. The additional infected rats were treated by oral gavage with Vehicle at 10 ml/kg (20% Cavitron/1% HPMCAS-MG; […] The 8-hour treatment groups received a single treatment (QD) and were euthanized and thighs collected for cfu determination 8 hours post treatment (QD), while the 24-hour treatment groups received 2 doses 12 hours apart (q12 h) and were euthanized and thighs collected 24 hours post treatment. […] After 2 hours a single group of rats (Early Control (EC)) was euthanized and the thighs harvested, homogenized and plated to quantitate S. aureus burdens. The additional infected rats were treated by oral gavage with Vehicle at 10 ml/kg (10% Vitamin E/TPGS; […] The 8-hour treatment groups received a single treatment (QD) and were euthanized and thighs collected for cfu determination 8 hours post treatment (QD), while the 24 hour treatment groups received 2 doses 12 hours apart (q12 h) and were euthanized and thighs collected 24 hours post treatment.
# [4] = 8 hours after the first dose, 10 mg/kg oral
# [5] = 8 hours after the first dose, 60 mg/kg oral
# [6] = 8 hours after the first dose, 100 mg/kg oral
# [7] = Table 9: 10 mg/kg oral, QD, 8 Hours
# [8] = Table 9: 10 mg/kg oral, q12 h, 24 Hours
# [9] = Table 9: 60 mg/kg oral, QD, 8 Hours
# [10] = Table 9: 60 mg/kg oral, q12 h, 24 Hours
# [11] = Table 9: 100 mg/kg oral, QD, 8 Hours
# [12] = Table 9: 100 mg/kg oral, q12 h, 24 Hours
# [13] = Table 8: 10 mg/kg oral, QD, 8 Hours
# [14] = Table 8: 10 mg/kg oral, q12 h, 24 Hours
# [15] = Table 8: 30 mg/kg oral, QD, 8 Hours
# [16] = Table 8: 30 mg/kg oral, q12 h, 24 Hours
# [17] = Table 8: 60 mg/kg oral, QD, 8 Hours
# [18] = Table 8: 60 mg/kg oral, q12 h, 24 Hours
structure (smiles),measurement,setting,value
"CCNC(=O)Nc1nc2cc(-c3cnc(C(C)(C)O)nc3)cc([C@H]3CCCO3)c2[nH]1 [Compound 13, methanesulfonic acid salt of 1-ethyl-3-[5-[2-(1-hydroxy-1-methyl-ethyl)pyrimidin-5-yl]-7-[(2R)-tetrahydrofuran-2-yl]-1H-benzimidazol-2-yl]urea]",MIC90,[1],0.12 µg/mL
same,MIC Range,[1],0.015 to 0.25 µg/mL
same,MIC,[2],8 µg/mL
same,bacterial growth compared to early control,[3]; [4],held the bacterial growth of SA 29213 to at least the point of stasis
same,log reduction in burdens compared to time-matched control,[3]; [4],~1.5 log
same,decrease of bacterial burden versus early control,[3]; [5],~0.4 logs
same,log reduction in burdens compared to time-matched control,[3]; [5],~1.7 log
same,decrease of bacterial burden versus early control,[3]; [6],~0.5 logs
same,log reduction in burdens compared to time-matched control,[3]; [6],1.8 log
same,decrease in bacterial density compared to early control,"[3]; 24 hours, second dose at 12 hours, 60 and 100 mg/kg",approximately 1 log
same,reduction of bacterial density compared to late control,"[3]; 24 hours, 10 mg/kg treatment group",~1.1 log
same,cfu levels greater than the early control,"[3]; 24 hours, 30 mg/kg (so in the source), did not appear effective",0.3 logs
same,reduction of bacterial density compared to late control,"[3]; 24 hours, 60 mg/kg",2.85 logs
same,reduction of bacterial density compared to late control,"[3]; 24 hours, 100 mg/kg",~3 logs
same,Median Thigh Burden (Log cfu/mL),"[3]; Table 9: 10 mg/kg oral gavage, single treatment (QD), 8 Hours",5.15 Log cfu/mL
same,Median Thigh Burden (Log cfu/mL),"[3]; Table 9: 10 mg/kg oral, 2 doses 12 hours apart (q12 h), 24 Hours",6.02 Log cfu/mL
same,Log Difference vs. Early Control,[3]; [7],−0.15
same,Log Difference vs. Late Control (8-hour),[3]; [7],−1.49
same,Log Difference vs. Early Control,[3]; [8],0.72
same,Log Difference vs. Late Control (24-hour),[3]; [8],−1.14
same,Log Difference vs. Early Control,[3]; [9],−0.35
same,Log Difference vs. Late Control (8-hour),[3]; [9],−1.69
same,Median Thigh Burden (Log cfu/mL),[3]; [9],4.95 Log cfu/mL
same,Log Difference vs. Early Control,[3]; [10],−0.99
same,Log Difference vs. Late Control (24-hour),[3]; [10],−2.85
same,Median Thigh Burden (Log cfu/mL),[3]; [10],4.31 Log cfu/mL
same,Log Difference vs. Early Control,[3]; [11],−0.48
same,Log Difference vs. Late Control (8-hour),[3]; [11],−1.82
same,Median Thigh Burden (Log cfu/mL),[3]; [11],4.82 Log cfu/mL
same,Log Difference vs. Early Control,[3]; [12],−1.13
same,Log Difference vs. Late Control (24-hour),[3]; [12],−2.99
same,Median Thigh Burden (Log cfu/mL),[3]; [12],4.17 Log cfu/mL
"CCNC(=O)Nc1nc2cc(-c3cnc(C(C)(C)O)nc3)c(F)c([C@H]3CCCO3)c2[nH]1 [Compound 23A, methanesulfonic acid salt of 1-ethyl-3-[6-fluoro-5-[2-(1-hydroxy-1-methyl-ethyl)pyrimidin-5-yl]-7-[(2R)-tetrahydrofuran-2-yl]-1H-benzimidazol-2-yl]urea]",MIC90,[1],0.03 µg/mL
same,MIC Range,[1],0.008 to 0.06 µg/mL
same,MIC,[2],1 µg/mL
same,bacterial growth compared to early control,[3]; [4],held the bacterial growth of SA 29213 to at least the point of stasis
same,log reduction in burdens compared to time-matched control,[3]; [4],~1.3 log
same,log reduction in burdens compared to time-matched control,"[3]; 8 hours after the first dose, 30 and 60 mg/kg oral",~2 log
same,decrease of bacterial burden compared to early control,"[3]; 8 hours after the first dose, 60 and 100 mg/kg (so in the source)",0.5-0.6 logs
same,log reduction compared to early control,"[3]; 24 hours, second dose at 12 hours, 10 mg/kg",approximately 0.8 log
same,log reductions compared to early control,"[3]; 24 hours, second dose at 12 hours, 30 and 60 mg/kg",1.1-1.2 log
same,decrease in bacterial density compared to late control,"[3]; 24 hours, second dose at 12 hours, all treatment groups (10, 30, 60 mg/kg)",2.4-2.8 logs
same,Median Thigh Burden (Log cfu/mL),"[3]; Table 8: 10 mg/kg oral gavage, single treatment (QD), 8 Hours",5.42 Log cfu/mL
same,Median Thigh Burden (Log cfu/mL),"[3]; Table 8: 10 mg/kg oral, 2 doses 12 hours apart (q12 h), 24 Hours",4.59 Log cfu/mL
same,Log Difference vs. Early Control,[3]; [13],0.05
same,Log Reduction vs. Late Control (8-hour),[3]; [13],−1.36
same,Log Difference vs. Early Control,[3]; [14],−0.78
same,Log Difference vs. Late Control (24-hour),[3]; [14],−2.40
same,Log Difference vs. Early Control,[3]; [15],−0.62
same,Log Reduction vs. Late Control (8-hour),[3]; [15],−2.02
same,Median Thigh Burden (Log cfu/mL),[3]; [15],4.75 Log cfu/mL
same,Log Difference vs. Early Control,[3]; [16],−1.06
same,Log Difference vs. Late Control (24-hour),[3]; [16],−2.68
same,Median Thigh Burden (Log cfu/mL),[3]; [16],4.31 Log cfu/mL
same,Log Difference vs. Early Control,[3]; [17],−0.57
same,Log Reduction vs. Late Control (8-hour),[3]; [17],−1.97
same,Median Thigh Burden (Log cfu/mL),[3]; [17],4.80 Log cfu/mL
same,Log Difference vs. Early Control,[3]; [18],−1.18
same,Log Difference vs. Late Control (24-hour),[3]; [18],−2.80
same,Median Thigh Burden (Log cfu/mL),[3]; [18],4.19 Log cfu/mL
